Laboratory results reported in the supplement of paper PMC10307832.

Tests used:
Test in all cases: relative viability (nuclei count vs DMSO), 5 days (fraction); higher = more cells survive
AZ628 + Dasatinib = compound: CC1=C(C=C(C=C1)NC(=O)C2=CC(=CC=C2)C(C)(C)C#N)NC3=CC4=C(C=C3)N=CN(C4=O)C [AZ628] + Cc1nc(Nc2ncc(C(=O)Nc3c(C)cccc3Cl)s2)cc(N2CCN(CCO)CC2)n1 [Dasatinib] (partner 0.075 µM)
How it was run: (§1)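 Relative viability divides the nuclei count in treated wells by that in vehicle wells. Lung cancer cell lines were seeded in 1536-well plates, dosed by pin tool the next day, and fixed and stained after 5 days in one step with final 0.05% Triton X-100, 1% formaldehyde and 1 ug/ml Hoechst. Dosing was a single drug or a fixed anchor-drug dose plus five library-drug doses (not always all listed) in √10 steps, and values are medians of duplicate plates imaged at 4×.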

AZ628 + AZD7762 = compound: CC1=C(C=C(C=C1)NC(=O)C2=CC(=CC=C2)C(C)(C)C#N)NC3=CC4=C(C=C3)N=CN(C4=O)C [AZ628] + NC(=O)Nc1cc(-c2cccc(F)c2)sc1C(=O)N[C@H]1CCCNC1 [AZD7762] (partner 0.2 µM)
How it was run: as §1

QS11 + Dasatinib = compound: C1CC2=C(C1)C=C(C=C2)OC3=NC(=C4C(=N3)N(C=N4)CC5=CC=C(C=C5)C6=CC=CC=C6)N[C@@H](CC7=CC=CC=C7)CO [QS11] + Cc1nc(Nc2ncc(C(=O)Nc3c(C)cccc3Cl)s2)cc(N2CCN(CCO)CC2)n1 [Dasatinib] (partner 0.075 µM)
How it was run: as §1

AZ628 + Pictilisib = compound: CC1=C(C=C(C=C1)NC(=O)C2=CC(=CC=C2)C(C)(C)C#N)NC3=CC4=C(C=C3)N=CN(C4=O)C [AZ628] + CS(=O)(=O)N1CCN(Cc2cc3nc(-c4cccc5[nH]ncc45)nc(N4CCOCC4)c3s2)CC1 [Pictilisib] (partner 1 µM)
How it was run: as §1

## NCI-H1975
AZ628 + Dasatinib; first compound 0.08 µM
  relative viability: 0.351
AZ628 + Dasatinib; first compound 0.253 µM
  relative viability: 0.292
AZ628 + Dasatinib; first compound 0.8 µM
  relative viability: 0.283
AZ628 + Dasatinib; first compound 2.53 µM
  relative viability: 0.248
AZ628 + Dasatinib; first compound 8 µM
  relative viability: 0.174
AZ628 + AZD7762; first compound 0.08 µM
  relative viability: 0.78
AZ628 + AZD7762; first compound 0.253 µM
  relative viability: 0.624
AZ628 + AZD7762; first compound 0.8 µM
  relative viability: 0.711
AZ628 + AZD7762; first compound 2.53 µM
  relative viability: 0.779
AZ628 + AZD7762; first compound 8 µM
  relative viability: 0.623
QS11 + Dasatinib; first compound 0.08 µM
  relative viability: 0.357
QS11 + Dasatinib; first compound 0.253 µM
  relative viability: 0.31
QS11 + Dasatinib; first compound 0.8 µM
  relative viability: 0.423
QS11 + Dasatinib; first compound 2.53 µM
  relative viability: 0.512
QS11 + Dasatinib; first compound 8 µM
  relative viability: 0.455
AZ628 + Pictilisib; first compound 0.08 µM
  relative viability: 0.309
AZ628 + Pictilisib; first compound 0.253 µM
  relative viability: 0.285
AZ628 + Pictilisib; first compound 0.8 µM
  relative viability: 0.29
AZ628 + Pictilisib; first compound 2.53 µM
  relative viability: 0.277
AZ628 + Pictilisib; first compound 8 µM
  relative viability: 0.206

## BEN
AZ628 + Dasatinib; first compound 0.08 µM
  relative viability: 0.348
AZ628 + Dasatinib; first compound 0.253 µM
  relative viability: 0.304
AZ628 + Dasatinib; first compound 0.8 µM
  relative viability: 0.301
AZ628 + Dasatinib; first compound 2.53 µM
  relative viability: 0.508
AZ628 + Dasatinib; first compound 8 µM
  relative viability: 0.309
AZ628 + AZD7762; first compound 0.08 µM
  relative viability: 0.678
AZ628 + AZD7762; first compound 0.253 µM
  relative viability: 0.593
AZ628 + AZD7762; first compound 0.8 µM
  relative viability: 0.653
AZ628 + AZD7762; first compound 2.53 µM
  relative viability: 0.614
AZ628 + AZD7762; first compound 8 µM
  relative viability: 0.587
QS11 + Dasatinib; first compound 0.08 µM
  relative viability: 0.29
QS11 + Dasatinib; first compound 0.253 µM
  relative viability: 0.37
QS11 + Dasatinib; first compound 0.8 µM
  relative viability: 0.352
QS11 + Dasatinib; first compound 2.53 µM
  relative viability: 0.325
QS11 + Dasatinib; first compound 8 µM
  relative viability: 0.33
AZ628 + Pictilisib; first compound 0.08 µM
  relative viability: 0.621
AZ628 + Pictilisib; first compound 0.253 µM
  relative viability: 0.523
AZ628 + Pictilisib; first compound 0.8 µM
  relative viability: 0.487
AZ628 + Pictilisib; first compound 2.53 µM
  relative viability: 0.49
AZ628 + Pictilisib; first compound 8 µM
  relative viability: 0.458

## NCI-H1437
AZ628 + Dasatinib; first compound 0.08 µM
  relative viability: 0.415
AZ628 + Dasatinib; first compound 0.253 µM
  relative viability: 0.242
AZ628 + Dasatinib; first compound 0.8 µM
  relative viability: 0.275
AZ628 + Dasatinib; first compound 2.53 µM
  relative viability: 0.43
AZ628 + Dasatinib; first compound 8 µM
  relative viability: 0.39
AZ628 + AZD7762; first compound 0.08 µM
  relative viability: 1.17
AZ628 + AZD7762; first compound 0.253 µM
  relative viability: 1.07
AZ628 + AZD7762; first compound 0.8 µM
  relative viability: 0.657
AZ628 + AZD7762; first compound 2.53 µM
  relative viability: 1.13
AZ628 + AZD7762; first compound 8 µM
  relative viability: 0.898
QS11 + Dasatinib; first compound 0.08 µM
  relative viability: 0.397
QS11 + Dasatinib; first compound 0.253 µM
  relative viability: 0.347
QS11 + Dasatinib; first compound 0.8 µM
  relative viability: 0.404
QS11 + Dasatinib; first compound 2.53 µM
  relative viability: 0.531
QS11 + Dasatinib; first compound 8 µM
  relative viability: 0.391
AZ628 + Pictilisib; first compound 0.08 µM
  relative viability: 0.505
AZ628 + Pictilisib; first compound 0.253 µM
  relative viability: 0.476
AZ628 + Pictilisib; first compound 0.8 µM
  relative viability: 0.526
AZ628 + Pictilisib; first compound 2.53 µM
  relative viability: 0.532
AZ628 + Pictilisib; first compound 8 µM
  relative viability: 0.483

## NCI-H1734
AZ628 + Dasatinib; first compound 0.08 µM
  relative viability: 0.424
AZ628 + Dasatinib; first compound 0.253 µM
  relative viability: 0.552
AZ628 + Dasatinib; first compound 0.8 µM
  relative viability: 0.525
AZ628 + Dasatinib; first compound 2.53 µM
  relative viability: 0.511
AZ628 + Dasatinib; first compound 8 µM
  relative viability: 0.349
AZ628 + AZD7762; first compound 0.08 µM
  relative viability: 0.504
AZ628 + AZD7762; first compound 0.253 µM
  relative viability: 0.56
AZ628 + AZD7762; first compound 0.8 µM
  relative viability: 0.561
AZ628 + AZD7762; first compound 2.53 µM
  relative viability: 0.473
AZ628 + AZD7762; first compound 8 µM
  relative viability: 0.373
QS11 + Dasatinib; first compound 0.08 µM
  relative viability: 0.449
QS11 + Dasatinib; first compound 0.253 µM
  relative viability: 0.509
QS11 + Dasatinib; first compound 0.8 µM
  relative viability: 0.504
QS11 + Dasatinib; first compound 2.53 µM
  relative viability: 0.481
QS11 + Dasatinib; first compound 8 µM
  relative viability: 0.597
AZ628 + Pictilisib; first compound 0.08 µM
  relative viability: 0.432
AZ628 + Pictilisib; first compound 0.253 µM
  relative viability: 0.359
AZ628 + Pictilisib; first compound 0.8 µM
  relative viability: 0.351
AZ628 + Pictilisib; first compound 2.53 µM
  relative viability: 0.367
AZ628 + Pictilisib; first compound 8 µM
  relative viability: 0.306

## NCI-H596
AZ628 + Dasatinib; first compound 0.08 µM
  relative viability: 0.693
AZ628 + Dasatinib; first compound 0.253 µM
  relative viability: 0.618
AZ628 + Dasatinib; first compound 0.8 µM
  relative viability: 0.573
AZ628 + Dasatinib; first compound 2.53 µM
  relative viability: 0.565
AZ628 + Dasatinib; first compound 8 µM
  relative viability: 0.471
AZ628 + AZD7762; first compound 0.08 µM
  relative viability: 1.11
AZ628 + AZD7762; first compound 0.253 µM
  relative viability: 1.08
AZ628 + AZD7762; first compound 0.8 µM
  relative viability: 1.02
AZ628 + AZD7762; first compound 2.53 µM
  relative viability: 1.17
AZ628 + AZD7762; first compound 8 µM
  relative viability: 0.915
QS11 + Dasatinib; first compound 0.08 µM
  relative viability: 0.591
QS11 + Dasatinib; first compound 0.253 µM
  relative viability: 0.586
QS11 + Dasatinib; first compound 0.8 µM
  relative viability: 0.584
QS11 + Dasatinib; first compound 2.53 µM
  relative viability: 0.611
QS11 + Dasatinib; first compound 8 µM
  relative viability: 0.586
AZ628 + Pictilisib; first compound 0.08 µM
  relative viability: 0.36
AZ628 + Pictilisib; first compound 0.253 µM
  relative viability: 0.383
AZ628 + Pictilisib; first compound 0.8 µM
  relative viability: 0.382
AZ628 + Pictilisib; first compound 2.53 µM
  relative viability: 0.376
AZ628 + Pictilisib; first compound 8 µM
  relative viability: 0.42

## LOU-NH91
AZ628 + Dasatinib; first compound 0.08 µM
  relative viability: 0.553
AZ628 + Dasatinib; first compound 0.253 µM
  relative viability: 0.484
AZ628 + Dasatinib; first compound 0.8 µM
  relative viability: 0.541
AZ628 + Dasatinib; first compound 2.53 µM
  relative viability: 0.497
AZ628 + Dasatinib; first compound 8 µM
  relative viability: 0.471
AZ628 + AZD7762; first compound 0.08 µM
  relative viability: 0.75
AZ628 + AZD7762; first compound 0.253 µM
  relative viability: 0.712
AZ628 + AZD7762; first compound 0.8 µM
  relative viability: 0.727
AZ628 + AZD7762; first compound 2.53 µM
  relative viability: 0.68
AZ628 + AZD7762; first compound 8 µM
  relative viability: 0.603
QS11 + Dasatinib; first compound 0.08 µM
  relative viability: 0.56
QS11 + Dasatinib; first compound 0.253 µM
  relative viability: 0.51
QS11 + Dasatinib; first compound 0.8 µM
  relative viability: 0.524
QS11 + Dasatinib; first compound 2.53 µM
  relative viability: 0.628
QS11 + Dasatinib; first compound 8 µM
  relative viability: 0.602
AZ628 + Pictilisib; first compound 0.08 µM
  relative viability: 0.582
AZ628 + Pictilisib; first compound 0.253 µM
  relative viability: 0.491
AZ628 + Pictilisib; first compound 0.8 µM
  relative viability: 0.492
AZ628 + Pictilisib; first compound 2.53 µM
  relative viability: 0.501
AZ628 + Pictilisib; first compound 8 µM
  relative viability: 0.452

## NCI-H2342
AZ628 + Dasatinib; first compound 0.08 µM
  relative viability: 0.319
AZ628 + Dasatinib; first compound 0.253 µM
  relative viability: 0.307
AZ628 + Dasatinib; first compound 0.8 µM
  relative viability: 0.327
AZ628 + Dasatinib; first compound 2.53 µM
  relative viability: 0.306
AZ628 + Dasatinib; first compound 8 µM
  relative viability: 0.298
AZ628 + AZD7762; first compound 0.08 µM
  relative viability: 0.489
AZ628 + AZD7762; first compound 0.253 µM
  relative viability: 0.44
AZ628 + AZD7762; first compound 0.8 µM
  relative viability: 0.623
AZ628 + AZD7762; first compound 2.53 µM
  relative viability: 0.53
AZ628 + AZD7762; first compound 8 µM
  relative viability: 0.625
QS11 + Dasatinib; first compound 0.08 µM
  relative viability: 0.318
QS11 + Dasatinib; first compound 0.253 µM
  relative viability: 0.323
QS11 + Dasatinib; first compound 0.8 µM
  relative viability: 0.299
QS11 + Dasatinib; first compound 2.53 µM
  relative viability: 0.35
QS11 + Dasatinib; first compound 8 µM
  relative viability: 0.348
